Experiments:
[1] = test system: human STAT6; assay: Human STAT6 dependent reporter activity (IL-4 stimulated STAT6 reporter assay using STAT6-HEK293 cells); format: cell-based; conditions: IL-4 stimulation, luciferase activity; for inhibition at 0.1 µM / inhibition at 1 µM: Homo sapiens, read-out: Inhibition rate (%)
[2] = target: T1, human STAT6/pIL-4Rα (Homo sapiens, UniProt P42226); assay: Binding inhibitory activity between human STAT6/pIL-4Rα by fluorescence polarization method; conditions: rhSTAT6 (123-658) / FAM-pIL-4Rα peptide
T1 construct: histidine tag
T1 sequence (P42226 123-658): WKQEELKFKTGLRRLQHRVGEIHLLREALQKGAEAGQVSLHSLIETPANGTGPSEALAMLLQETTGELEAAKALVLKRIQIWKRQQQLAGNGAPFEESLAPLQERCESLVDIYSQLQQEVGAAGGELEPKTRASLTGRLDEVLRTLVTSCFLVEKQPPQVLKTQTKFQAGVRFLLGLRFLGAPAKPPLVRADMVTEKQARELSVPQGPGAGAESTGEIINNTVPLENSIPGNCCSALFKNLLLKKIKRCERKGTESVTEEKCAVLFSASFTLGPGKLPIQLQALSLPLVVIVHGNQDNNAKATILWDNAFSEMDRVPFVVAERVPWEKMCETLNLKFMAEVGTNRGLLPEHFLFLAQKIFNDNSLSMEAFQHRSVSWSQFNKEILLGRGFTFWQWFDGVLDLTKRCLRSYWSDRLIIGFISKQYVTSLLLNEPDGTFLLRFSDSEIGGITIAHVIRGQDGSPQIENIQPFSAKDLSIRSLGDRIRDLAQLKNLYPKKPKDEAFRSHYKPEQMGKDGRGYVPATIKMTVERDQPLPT
Method in brief: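 His-tagged human STAT6 (residues 123–658, E. coli-expressed) was preincubated with compound for 30 min at RT in the dark, in buffer e.g. 50 mM NaCl, 10 mM HEPES pH 7.0, 1 mM DTT, 1 mM EDTA, 0.01% NP-40. FAM-pIL-4Rα peptide was then added for 30 min. Fluorescence polarisation was read at 485/535 nm, with IC50 interpolated linearly between two points flanking 50%.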

SMILES	IC50 [2]	inhibition at 0.1 µM ([1]; compound 0.1 μmol/L)	inhibition at 1 µM ([1]; compound 1 μmol/L)	Inhibition rate (%) ([1]; compound 0.1 μmol/L)	Inhibition rate (%) ([1]; compound 1 μmol/L)
CCn1c(-c2ccc(-n3c(C)nn(C)c3=O)cc2)cc2ncnc(C(=O)Nc3ccc(F)c(C(N)=O)c3)c21 [Ex. 110]	0.43 µM	65%	–	–	–
Cc1nn(C)c(=O)n1-c1ccc(-c2cc3ccnc(C(=O)Nc4ccc(F)c(C(N)=O)c4)c3n2CCC(F)F)cc1 [Ex. 111]	0.55 µM	25%	80%	–	–
Cc1nn(C)c(=O)n1-c1ccc(-c2cc3ccnc(C(=O)Nc4cccc(C(N)=O)c4F)c3n2CCC(F)F)cc1 [Ex. 112]	0.4 µM	38%	93%	–	–
Cc1nn(C)c(=O)n1-c1ccc(-c2cc3ccnc(C(=O)Nc4cccc(C(N)=O)c4F)c3n2CCOCC(F)(F)F)cc1 [Ex. 113]	0.44 µM	44%	96%	–	–
Cc1nn(C)c(=O)n1-c1ccc(-c2cc3ccnc(C(=O)Nc4ccc(F)c(C(N)=O)c4)c3n2CCOCC(F)(F)F)cc1 [Ex. 114]	0.33 µM	57%	97%	–	–
COCCn1c(-c2ccc(-n3c(C)nn(C)c3=O)cc2)cc2cc(C(F)(F)F)cc(C(=O)Nc3cccc(CO)c3)c21 [Ex. 115]	0.43 µM	54%	95%	–	–
CCn1c(-c2ccc(-n3c(C)nn(C)c3=O)cc2)cc2cc(C(F)(F)F)cc(C(=O)Nc3cccc(-c4ncc[nH]4)c3)c21 [Ex. 118]	0.23 µM	95%	–	–	–
Cc1nn(C)c(=O)n1-c1ccc(-c2cc3cccc(C(=O)Nc4cccc(C(N)=O)c4F)c3n2CC2CC2)cc1 [Ex. 119]	0.38 µM	95%	–	–	–
Cc1nn(C)c(=O)n1-c1ccc(-c2cc3ccnc(C(=O)Nc4cccc(C(N)=O)c4)c3n2CC2CCC2)cc1 [Ex. 120]	0.5 µM	74%	–	–	–
Cc1nn(C)c(=O)n1-c1ccc(-c2cc3ccnc(C(=O)Nc4ccc(F)c(C(N)=O)c4)c3n2CC2CCC2)cc1 [Ex. 121]	0.42 µM	40%	97%	–	–
Cc1nn(C)c(=O)n1-c1ccc(-c2cc3ccnc(C(=O)Nc4cccc(C(N)=O)c4F)c3n2CC2CCC2)cc1 [Ex. 122]	0.69 µM	23%	89%	–	–
Cc1nn(C)c(=O)n1-c1ccc(-c2cc3ccnc(C(=O)Nc4cccc(C(N)=O)c4F)c3n2CC2(C#N)CC2)cc1 [Ex. 123]	0.5 µM	40%	96%	–	–
Cc1nn(C)c(=O)n1-c1ccc(-c2cc3cc(C(F)(F)F)cc(C(=O)Nc4ccc(F)c(C(N)=O)c4)c3n2CC2(C#N)CC2)cc1 [Ex. 124]	0.45 µM	57%	99%	–	–
Cc1nn(C)c(=O)n1-c1ccc(-c2cc3cc(C(F)(F)F)cc(C(=O)Nc4cccc(C(N)=O)c4F)c3n2CC2(C#N)CC2)cc1 [Ex. 125]	0.26 µM	52%	99%	–	–
Cc1nn(C)c(=O)n1-c1ccc(-c2cc3cc(C(F)(F)F)cc(C(=O)Nc4cccc(C(N)=O)c4)c3n2CC2(C#N)CC2)cc1 [Ex. 126]	0.24 µM	62%	–	–	–
CCn1c(-c2ccc(-n3c(C)nn(C)c3=O)nn2)cc2cc(C(F)(F)F)cc(C(=O)Nc3cccc(C(N)=O)c3F)c21 [Ex. 127]	0.25 µM	38%	99%	–	–
CCn1c(-c2ccc(N3C(=O)C(C)CC3C)cc2)cc2ccnc(C(=O)Nc3ccc(F)c(C(N)=O)c3)c21 (centres unmarked) [Ex. 129]	0.59 µM	–	–	8%	75%
CCn1c(-c2ccc(N3C(=O)C(C)CC3C)cc2)cc2ccnc(C(=O)Nc3ccc(F)c(C(N)=O)c3)c21 (centres unmarked) [Ex. 130]	0.36 µM	–	–	74%	96%
CCn1c(-c2ccc(N3C(=O)C(C)CC3C)cc2)cc2ccnc(C(=O)Nc3cccc(C(N)=O)c3)c21 (centres unmarked) [Ex. 131]	0.51 µM	56%	92%	–	–
COCCn1c(-c2ccc(N3C(=O)C(C)CC3C)cc2)cc2cc(C(F)(F)F)nc(C(=O)Nc3cccc(C(N)=O)c3)c21 (centres unmarked) [Ex. 132]	0.52 µM	70%	96%	–	–
COCCn1c(-c2ccc(N3C(=O)C(C)CC3C)cc2)cc2cc(C(F)(F)F)nc(C(=O)Nc3ccc(F)c(C(N)=O)c3)c21 (centres unmarked) [Ex. 133]	0.23 µM	80%	–	–	–
CCn1c(-c2ccc(N3C(=O)C(C)CC3C)cc2)cc2cc(C(F)(F)F)nc(C(=O)Nc3cccc(C(N)=O)c3)c21 (centres unmarked) [Ex. 134]	0.37 µM	48%	99%	–	–
CCn1c(-c2ccc(N3C(=O)C(C)CC3C)cc2)cc2cc(C(F)(F)F)nc(C(=O)Nc3ccc(F)c(C(N)=O)c3)c21 (centres unmarked) [Ex. 135]	0.53 µM	85%	–	–	–
COCCn1c(-c2ccc(N3C(=O)C(C)CC3C)cc2)cc2ccnc(C(=O)Nc3cccc(C(N)=O)c3)c21 (centres unmarked) [Ex. 136]	0.48 µM	61%	–	–	–
COCCn1c(-c2ccc(N3C(=O)C(C)CC3C)cc2)cc2ccnc(C(=O)Nc3ccc(F)c(C(N)=O)c3)c21 (centres unmarked) [Ex. 137]	0.28 µM	62%	–	–	–
COCCn1c(-c2ccc(-n3c(C)nn(C)c3=O)cc2)cc2cc(C(F)(F)F)cc(COc3cccc(C(N)=O)c3)c21 [Ex. 138]	0.37 µM	35%	93%	–	–
COCCn1c(-c2ccc(-n3c(C)nn(C)c3=O)cc2)cc2cc(C(F)(F)F)cc(CNc3cccc(C(N)=O)c3)c21 [Ex. 139]	1.94 µM	8%	69%	–	–
CCn1c(-c2ccc(-n3c(C)nn(C)c3=O)cc2)c(I)c2cncc(C(=O)Nc3ccc(F)c(C(N)=O)c3)c21 [Ex. 140]	2.72 µM	3%	45%	–	–

Continued, in another order:

IC50 [2]	SMILES	inhibition at 0.1 µM ([1]; compound 0.1 μmol/L)	inhibition at 1 µM ([1]; compound 1 μmol/L)	Inhibition rate (%) ([1]; compound 0.1 μmol/L)	Inhibition rate (%) ([1]; compound 1 μmol/L)
0.3 µM	CCn1c(-c2ccc(-n3cnn(C)c3=O)cc2)c(Cl)c2cc(C(F)(F)F)cc(C(=O)Nc3ccc(F)c(C(N)=O)c3)c21 [Ex. 142]	94%	100%	–	–
0.39 µM	COCCn1c(-c2ccc(-n3c(C)nn(C)c3=O)cc2)c(Cl)c2cc(C(F)(F)F)cc(C(=O)Nc3ccc(F)c(C(N)=O)c3)c21 [Ex. 143]	87%	99%	–	–
0.37 µM	CCn1c(-c2ccc(-n3ncn(C)c3=O)cc2)cc2ccnc(C(=O)Nc3ccc(F)c(C(N)=O)c3)c21 [Ex. 144]	48%	99%	–	–
0.28 µM	CCn1c(-c2ccc(-n3c(C)nn(C)c3=O)nc2)cc2cccc(C(=O)Nc3cccc(C(N)=O)c3F)c21 [Ex. 145]	53%	97%	–	–
0.75 µM	CCn1c(-c2ccc(N3CCCC3=O)cc2)cc2cc(C(F)(F)F)cc(C(=O)Nc3ccc(F)c(C(N)=O)c3)c21 [Ex. 146]	55%	87%	–	–
0.78 µM	CCn1c(-c2ccc(N3C(=O)C(C)CC3C)cc2)cc2ccnc(C(=O)Nc3ccc(F)c(C(=O)NCC#N)c3)c21 (centres unmarked) [Ex. 147]	48%	91%	–	–
0.33 µM	CCn1c(-c2ccc(C(=O)N(C)C)cc2)cc2ccnc(C(=O)Nc3ccc(F)c(C(=O)NCC#N)c3)c21 [Ex. 148]	86%	–	–	–
0.33 µM	CCn1c(-c2ccc(NC(C)=O)cc2)cc2ccnc(C(=O)Nc3ccc(F)c(C(=O)NCC#N)c3)c21 [Ex. 149]	25%	84%	–	–
0.24 µM	CCn1c(-c2ccc(N3CCOCC3=O)cc2)cc2ccnc(C(=O)Nc3ccc(F)c(C(=O)NCC#N)c3)c21 [Ex. 150]	38%	89%	–	–
0.61 µM	CCn1c(-c2ccc(-n3c(C)nn(C)c3=O)nc2)cc2cccc(C(=O)Nc3ccc(F)c(C(N)=O)c3)c21 [Ex. 151]	26%	77%	–	–
0.65 µM	CCn1c(-c2ccc(-n3c(C)nn(C)c3=O)cc2C(F)(F)F)cc2cc(C(F)(F)F)cc(C(=O)Nc3ccc(F)c(C(N)=O)c3)c21 [Ex. 152]	38%	84%	–	–
0.94 µM	CCn1c(-c2ccc(C(=O)N(C)C)cc2)cc2cc(C(F)(F)F)cc(C(=O)Nc3ccc(F)c(C(N)=O)c3)c21 [Ex. 153]	25%	93%	–	–
0.28 µM	CCn1c(-c2ccc(-n3c(C(F)F)nn(C)c3=O)cc2)cc2cc(C(F)(F)F)cc(C(=O)Nc3ccc(F)c(C(N)=O)c3)c21 [Ex. 154]	52%	99%	–	–
0.38 µM	CCc1nn(C)c(=O)n1-c1ccc(-c2cc3cc(C(F)(F)F)cc(C(=O)Nc4ccc(F)c(C(N)=O)c4)c3n2CC)cc1 [Ex. 155]	69%	100%	–	–

Reference: patent US20260092054A1, “FUSED RING COMPOUND AND PHARMACEUTICAL CONTAINING SAME” (KAKEN PHARMACEUTICAL CO., LTD., priority 2022, published 2026)
